Assay results reported in ChEMBL document CHEMBL1142182, “Novel Ambler class A beta-lactamase LAP-1 and its association with the plasmid-mediated quinolone resistance determinant QnrS1” (Antimicrob Agents Chemother, 2007).
≈ marks a conversion by molar mass, not a printed value.

What was measured:
Escherichia coli [1] = test: Antibacterial activity against Escherichia coli DH10B expressing recombinant beta lactamase LAP1; type: functional
Enterobacter cloacae [2] = test: Antibacterial activity against Enterobacter cloacae S3 isolate by agar dilution technique; type: functional
Escherichia coli [3] = test: Antibacterial activity against Escherichia coli DH10B; type: functional
Enterobacter cloacae [4] = system: Enterobacter cloacae
Description: Activity of Enterobacter cloacae S3 isolate beta lactamase LAP1 expressed in Escherichia coli DH10B

Enterobacter cloacae [5] = system: Enterobacter cloacae; remark: listed apart in the source
Description: Ratio of kcat to Km of Enterobacter cloacae S3 isolate beta lactamase LAP1 expressed in Escherichia coli DH10B

[6] = Inhibition of Enterobacter cloacae S3 isolate beta lactamase LAP1 expressed in Escherichia coli DH10B

Row | IC50 [6] [µM] | Compound | MIC (Escherichia coli [1]) [µg/mL] | MIC (Enterobacter cloacae [2]) [µg/mL] | MIC (Escherichia coli [3]) [µg/mL] | Km (Enterobacter cloacae [4]) [µM] | kcat/Km (Enterobacter cloacae [5]) [M⁻¹ s⁻¹]
1 |  | CC(C)(O/N=C(\C(=O)N[C@@H]1C(=O)N2C(C(=O)[O-])=C(C[n+]3ccccc3)CS[C@H]12)c1csc(N)n1)C(=O)O [CEFTAZIDIME] | 0.12 | 0.5 (≈ 0.915 µM) | 0.06 (≈ 0.11 µM) |  | 
2 |  | CO/N=C(\C(=O)N[C@@H]1C(=O)N2C(C(=O)[O-])=C(C[N+]3(C)CCCC3)CS[C@H]12)c1csc(N)n1 | 0.12 |  |  |  | 
3 |  | CCN1CCN(C(=O)N[C@@H](C(=O)N[C@@H]2C(=O)N3[C@@H]2SC(C)(C)[C@@H]3C(=O)O)c2ccccc2)C(=O)C1=O [PIPERACILLIN] | 4 | 16 (≈ 30.9 µM) | 1 (≈ 1.93 µM) | 50 | 1.5e+06
4 |  | CO/N=C(\C(=O)N[C@@H]1C(=O)N2C(C(=O)O)=C(COC(C)=O)CS[C@H]12)c1csc(N)n1 [CEFOTAXIME] | 0.12 | 0.25 (≈ 0.549 µM) | 0.12 (≈ 0.263 µM) |  | 
5 | 0.08 | CC1(C)S[C@@H]2[C@H](NC(=O)Cc3ccccc3)C(=O)N2[C@H]1C(=O)O [PENICILLIN G] |  |  |  | 20 | 1e+07
6 |  | CO/N=C(\C(=O)N[C@@H]1C(=O)N2C(C(=O)O)=C(COC(N)=O)CS[C@H]12)c1ccco1 [CEFUROXIME] | 8 | 256 (≈ 603 µM) | 2 (≈ 4.71 µM) | > 2000 | > 50000
7 |  | CC1(C)S[C@@H]2[C@H](NC(=O)[C@H](N)c3ccc(O)cc3)C(=O)N2[C@H]1C(=O)O [AMOXICILLIN] | 512 | > 512 | 4 (≈ 10.9 µM) | 180 | 3.3e+06
8 |  | C[C@@H](O)[C@H]1C(=O)N2C(C(=O)O)=C(SCCNC=N)C[C@H]12 [IMIPENEM ANHYDROUS] |  | 0.12 (≈ 0.401 µM) |  |  | 
9 |  | CC1(C)S[C@@H]2[C@H](NC(=O)[C@H](C(=O)O)c3ccsc3)C(=O)N2[C@H]1C(=O)O [TICARCILLIN] | 512 | > 512 | 4 (≈ 10.4 µM) |  | 
10 |  | CO[C@@]1(NC(=O)Cc2cccs2)C(=O)N2C(C(=O)O)=C(COC(N)=O)CS[C@@H]21 [CEFOXITIN] | 4 | 256 (≈ 599 µM) | 4 (≈ 9.36 µM) |  | 
11 |  | CC(=O)OCC1=C(C(=O)O)N2C(=O)[C@@H](NC(=O)Cc3cccs3)[C@H]2SC1 [CEPHALOTHIN] | 16 | > 512 | 4 (≈ 10.1 µM) | 400 | 90000
